A short description of the data set: Macrolactamisation (Trp/pyrroloindoline CO2H + Val NH2): HATU 1.2 equiv pre-activation, slow syringe-pump addition to Et3N (15 equiv; 1.2 equiv for 12), after TFA N-Boc removal. Conditions: CH2Cl2/DMF (10:1 to 40:1), 0.6 mM, 2 steps.

`C=CC(C)(C)[C@@]12C[C@@H]3C(=O)N[C@@H](C(C)C)C(=O)Nc4ccccc4C(=O)N(c4ccccc41)[C@@H]2N3C(C)=O`: the ring closure, yield over several steps (from C=CC(C)(C)[C@]12C[C@H](C(=O)O)N(C(C)=O)[C@H]1N(C(=O)c1ccccc1NC(=O)[C@@H](N)C(C)C)c1ccccc12, 12-membered ring, 37.0 h) is 0%. As for `C=CC(C)(C)[C@@]12C[C@H]3C(=O)N[C@@H](C(C)C)C(=O)Nc4ccccc4C(=O)N(c4ccccc41)[C@@H]2N3C(C)=O` [(S)-endo-40 -> L-Trp-regio-endo-4], the ring closure, yield over several steps (from C=CC(C)(C)[C@]12C[C@@H](C(=O)O)N(C(C)=O)[C@H]1N(C(=O)c1ccccc1NC(=O)[C@@H](N)C(C)C)c1ccccc12, 12-membered ring, 22.0 h) was found to be 37%. `C=CC(C)(C)[C@]12C[C@H]3C(=O)N[C@@H](C(C)C)C(=O)Nc4ccccc4C(=O)N(c4ccccc41)[C@H]2N3C(C)=O` [(S)-exo-40 -> L-Trp-regio-exo-4 (moderately pure, unstable)]: the ring closure, yield over several steps (from C=CC(C)(C)[C@@]12C[C@@H](C(=O)O)N(C(C)=O)[C@@H]1N(C(=O)c1ccccc1NC(=O)[C@@H](N)C(C)C)c1ccccc12, 12-membered ring, 15.0 h) was found to be 21%.

Turning to `CC(=O)N[C@@H]1Cc2cn(c3ccccc23)C(=O)c2ccccc2NC(=O)[C@H](C(C)C)NC1=O` [H-L-Val-(2-aminobenzoyl)-(N-indole)-Ac-D-Trp-OH], under “from CC(=O)N[C@H](Cc1cn(C(=O)c2ccccc2NC(=O)[C@@H](N)C(C)C)c2ccccc12)C(=O)O, 13-membered ring, 84.0 h”, the ring closure, yield over several steps turned out to be 14%. Consider `C=CC(C)(C)[C@]12C[C@@H]3C(=O)N[C@@H](C(C)C)C(=O)Nc4ccccc4C(=O)N(c4ccccc41)[C@H]2N3C(C)=O` [endo-40 -> D-Trp-regio-endo-4], for which the ring closure, yield over several steps (from C=CC(C)(C)[C@@]12C[C@H](C(=O)O)N(C(C)=O)[C@@H]1N(C(=O)c1ccccc1NC(=O)[C@@H](N)C(C)C)c1ccccc12, 12-membered ring, 24.0 h) stood at 61%.

The record behind these values is article PMC9552235.
